From patent publication US20110098296A1, “Thiazole And Oxazole Kinase Inhibitors” (priority 2007, published 2011) come the findings set out here.

One may read the IC50 as the concentration needed to halve the response being measured.

Structures can show the parent of a compound that is named as a salt.

In one test the test system is BT474 tumor cells. The test can be described thus: Method C: Cell Growth Inhibition Assay (CellTiter-Glo), BT474. Type of test: cell-based. The conditions noted are these: Homo sapiens, BT-474, 72 h, 3 days, 4-parameter fit. On the procedure:
(§1) Human breast tumor cells (BT474) were cultured in RPMI (Mediatech 50-011-PB), containing 10% FBS (JRH Biosciences 12176) and 1% penicillin-streptomycin (Invitrogen 15140). Human head and neck tumor cells (HN5) were cultured in high glucose DMEM (Mediatech 50-013-PB) containing 10% FBS and 1% penicillin-streptomycin. Human colon tumor cells (Colo205) were cultured in RPMI (Mediatech 50-020-PB) containing 10% FBS and 1% penicillin-streptomycin. Human melanoma cancer cells (SK-MEL-28) were cultured in EMEM with nonessential amino acids (Mediatech 50-011-PB) containing 10% FBS, 1% sodium pyruvate (JT Baker 3354-04), and 1% penicillin-streptomycin. Human melanoma cancer cells (A375P F11s) were cultured in RPMI (Mediatech 50-020-PB) containing 10% FBS, 1% sodium pyruvate, and 1% penicillin-streptomycin. Human colon cancer cells (HT-29) were cultured in high glucose DMEM (Mediatech 50-013-PB) containing 10% FBS and 1% penicillin-streptomycin. Human melanoma cancer cells (SK-MEL-3) were cultured in McCoy's 5A (50-025-PB) containing 15% FBS, and 1% penicillin-streptomycin. All cell lines were maintained at 37° C. in a humidified 5% CO2, 95% air incubator. Cells were harvested using trypsin/EDTA (Invitrogen 25200), counted using an haemocytometer, and plated. For 96-well assays (using white full-area NUNC plates cat. #136102), cells were plated in 105 μL at the following densities (cells/well): HN5, 500; Colo205, 500; SK-MEL-28, 500; A375P-F11s, 500; HT-29, 500; SK-MEL-3, 500; and BT474, 3000. For 384-well assays (white full-area NUNC plates, cat. #781080), cells were plated in 48 μL at the following densities (cells/well): HN5, 500; Colo205, 500; SK-MEL-28, 500; A375P-F11s, 500; HT29, 500; SK-MEL-3, 500; and BT474, 2000.
(§2) The next day, compounds were diluted as follow: For 96-well assays, 13.5 μL of compound in DMSO were diluted using nine (9) serial 1:3 dilutions of 4.5 μL in 9 μL of DMSO. Medium (270 μl/well of RPMI with 10% FBS and 1% penicillin-streptomycin) was added to the plates. Aliquots (7 μl) were added to cells in the final assay giving a final DMSO concentration of 0.2%. For 384-well assays, 15 μL of compound in DMSO were diluted using nine (9) serial 1:3 dilutions of 5 μL in 10 μL of DMSO, followed by a further dilution of 5 μL of compound with 95 μL of medium, of which 2 μL were added to cells in the final assay giving a final DMSO concentration of 0.2%. Cells were incubated at 37° C., 5% CO2 for 3 days.
(§3) Total ATP was measured (as a surrogate estimate of cell number) using CellTiter-Glo® reagent (Promega G7571). Briefly, plates were removed from the incubator and allowed to equilibrate to room temperature for 30 minutes. CellTiter-Glo® (25 μL or 55 μL for 384-well or 96-well assays, respectively) reagent was added to each well and plates were shaken on an orbital plate shaker for 2 mins. Plates were incubated without shaking for a further 30 mins and read on an LJL Analyst GT reader in luminometer mode with an integration time of 0.5 seconds per well. Percent inhibition of cell growth was calculated relative to DMSO vehicle-treated control wells. Concentration of compound required to give 50% inhibition of vehicle-treated control cell growth (IC50) was interpolated using a 4-parameter fit for determining IC50 using the following equation: Y=A+((B−A)/(1+((C/X)̂D))) where X=IC50.
On the technique in general: Cellular ATP, detected with luciferase, serves as a proxy for viable cell number.

The target of another test is T1, EGFR (Homo sapiens, UniProt P00533).
T1 construct: made in house; host or cells: baculovirus expression system
T1 sequence (P00533 25-1210): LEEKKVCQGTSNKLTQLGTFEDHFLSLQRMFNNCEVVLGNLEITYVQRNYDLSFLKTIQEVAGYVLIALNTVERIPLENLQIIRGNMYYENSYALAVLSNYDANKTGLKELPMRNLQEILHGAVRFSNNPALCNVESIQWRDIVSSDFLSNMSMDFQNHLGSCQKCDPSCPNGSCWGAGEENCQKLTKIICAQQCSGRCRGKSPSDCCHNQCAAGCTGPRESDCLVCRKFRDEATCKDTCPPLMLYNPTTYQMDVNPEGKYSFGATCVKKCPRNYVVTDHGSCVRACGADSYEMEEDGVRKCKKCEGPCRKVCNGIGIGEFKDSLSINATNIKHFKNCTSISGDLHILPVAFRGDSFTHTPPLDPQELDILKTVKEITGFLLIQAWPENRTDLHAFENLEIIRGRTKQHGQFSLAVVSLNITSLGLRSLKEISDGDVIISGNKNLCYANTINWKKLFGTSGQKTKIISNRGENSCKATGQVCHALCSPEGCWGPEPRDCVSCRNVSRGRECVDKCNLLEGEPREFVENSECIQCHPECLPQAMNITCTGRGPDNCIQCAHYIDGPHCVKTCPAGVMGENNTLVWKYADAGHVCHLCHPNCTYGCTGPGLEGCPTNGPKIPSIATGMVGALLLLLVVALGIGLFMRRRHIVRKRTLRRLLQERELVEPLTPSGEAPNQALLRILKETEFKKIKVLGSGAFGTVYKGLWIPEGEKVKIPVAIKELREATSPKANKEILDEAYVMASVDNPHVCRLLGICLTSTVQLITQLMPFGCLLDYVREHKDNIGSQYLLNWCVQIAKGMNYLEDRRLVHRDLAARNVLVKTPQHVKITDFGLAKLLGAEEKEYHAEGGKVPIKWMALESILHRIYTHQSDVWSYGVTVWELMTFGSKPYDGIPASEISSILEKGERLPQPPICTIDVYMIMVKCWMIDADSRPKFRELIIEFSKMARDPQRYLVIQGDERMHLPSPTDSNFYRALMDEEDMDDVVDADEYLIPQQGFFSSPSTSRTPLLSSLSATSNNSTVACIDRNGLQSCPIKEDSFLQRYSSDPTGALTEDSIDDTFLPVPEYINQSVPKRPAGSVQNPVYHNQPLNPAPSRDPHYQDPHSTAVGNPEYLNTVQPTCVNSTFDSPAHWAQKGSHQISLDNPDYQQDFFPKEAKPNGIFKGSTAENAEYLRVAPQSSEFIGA
The test can be described thus: EGFR substrate phosphorylation assay (HTRF). Type of test: biochemical. The conditions noted are these: Method (A): Enzyme Mix incubated with compound at 20° C. for 1 hr, reaction started by adding Substrate Mix. On the procedure: (§4) Compounds of the present invention were tested for EGFR and ErbB-2 protein tyrosine kinase inhibitory activity in substrate phosphorylation assays using enzymes purified from a baculovirus expression system. Reagent production was conducted essentially as described in Brignola, P. S., et al., (2002) J. Biol. Chem. 277(2):1576-1585.
(§5) The method measures the ability of the isolated enzyme to catalyse the transfer of the gamma-phosphate from ATP onto the tyrosine residue of a biotinylated synthetic peptide referenced “Peptide C” in Brignola, P. S., et al., (2002) J. Biol. Chem. 277(2):1576-1585. The extent of tyrosine phosphorylation was measured using an anti-phosphotyrosine antibody, and quantified by homogenous time-resolved fluorescence (HTRF).
(§6) Reactions were performed in black 384-well polystyrene flat-bottom plates in a final volume of 20 μl. Assays were performed by adding 10 μl of each of the following solutions, Substrate Mix and Enzyme Mix: The Substrate Mix contained 100 mM 3-[N-morpholino]propanesulfonic acid (MOPS) (pH 7.5), 2 mM MnCl2, 20 μM ATP, 0.01% Tween-20, 0.1 mg/mL (BSA), 0.8 uM peptide substrate, and 1 mM dithiothreitol. The Enzyme Mix contained 100 mM MOPS (pH 7.5); 0.01% Tween-20; 0.1 mg/mL BSA, and either 0.8 nM EGFR, 10 nM ErbB2, or 1 nM ErbB4
(§7) During the course of these studies, two separate methods have been used to measure the potency of compounds. In Method A (indicated as “(A)” in the tables below), the Enzyme Mix was added to the compound plates and the plates were incubated at 20° C. for 1 hr. The reactions were then started by adding the Substrate Mix. In Method B (indicated as “(B)” in the tables below), the Substrate Mix was added to the compound plates first, then the reaction was started by adding the Enzyme Mix.
(§8) After initiating the reaction with either method describe above, the reactions were allowed to proceed for 90 minutes at 20° C. The reactions were then terminated by the addition of 20 μL 100 mM EDTA to each well. 40 μL/well of HTRF detection mix were added to the assay plates. The final concentrations of the detection reagents were: 100 mM HEPES (pH7.5), 0.1 mg/mL BSA, 15 nM streptavidin-labeled allophycocyanin (PerkinElmer), and 1 nM europium-labeled anti-phosphotyrosine antibody (PerkinElmer). Assay plates were left unsealed and were counted in a Wallac Multilabel Counter 1420 (PerkinElmer).
(§9) Compounds under analysis were dissolved in dimethylsulfoxide (DMSO) to 1.0 mM and serially diluted 1 to 3 with DMSO through twelve dilutions. 1 μL of each concentration was transferred to the corresponding well of an assay plate. This creates a final compound concentration range from 0.00027 to 47.6 μM.
(§10) The data for dose responses were plotted as % Inhibition calculated with the data reduction formula 100*(1−(U1−C2)/(C1−C2)) versus concentration of compound where U1 is the unknown value, C1 is the average control value obtained for 4.76% DMSO, and C2 is the average control value obtained for 0.035 M EDTA. Data were fitted with a curve described by:
(§11) where Vmax is the upper asymptote, Y2 is the Y intercept, and K is the IC50. The results for each compound were recorded as pIC50s, calculated as follows: […]
For orientation: In TR-FRET formats the signal depends on donor and acceptor labels being close together.

A further test has as its target T2, ErbB2 (Homo sapiens, UniProt P04626).
T2 construct: made in house; host or cells: baculovirus expression system
Nature of the test: ErbB-2 substrate phosphorylation assay (HTRF). As to conditions: Method (A): Enzyme Mix incubated with compound at 20° C. for 1 hr, reaction started by adding Substrate Mix. Type of test: biochemical. On the procedure: as §4, §5, §6, §7, §8, §9, §10, §11

The subject of a further test is SK-MEL-28 tumor cells. Nature of the test: Method C: Cell Growth Inhibition Assay (CellTiter-Glo), SK-MEL-28. Type of test: cell-based. As to conditions: Homo sapiens, SK-MEL-28, 72 h, 3 days, 4-parameter fit. On the procedure: as §1, §2, §3
For the next test, the system named is Colo205 tumor cells. Nature of the test: Method C: Cell Growth Inhibition Assay (CellTiter-Glo), Colo205. As to conditions: Homo sapiens, COLO 205, 72 h, 3 days, 4-parameter fit. Type of test: cell-based. On the procedure: as §1, §2, §3

T2 sequence (P04626 23-1255): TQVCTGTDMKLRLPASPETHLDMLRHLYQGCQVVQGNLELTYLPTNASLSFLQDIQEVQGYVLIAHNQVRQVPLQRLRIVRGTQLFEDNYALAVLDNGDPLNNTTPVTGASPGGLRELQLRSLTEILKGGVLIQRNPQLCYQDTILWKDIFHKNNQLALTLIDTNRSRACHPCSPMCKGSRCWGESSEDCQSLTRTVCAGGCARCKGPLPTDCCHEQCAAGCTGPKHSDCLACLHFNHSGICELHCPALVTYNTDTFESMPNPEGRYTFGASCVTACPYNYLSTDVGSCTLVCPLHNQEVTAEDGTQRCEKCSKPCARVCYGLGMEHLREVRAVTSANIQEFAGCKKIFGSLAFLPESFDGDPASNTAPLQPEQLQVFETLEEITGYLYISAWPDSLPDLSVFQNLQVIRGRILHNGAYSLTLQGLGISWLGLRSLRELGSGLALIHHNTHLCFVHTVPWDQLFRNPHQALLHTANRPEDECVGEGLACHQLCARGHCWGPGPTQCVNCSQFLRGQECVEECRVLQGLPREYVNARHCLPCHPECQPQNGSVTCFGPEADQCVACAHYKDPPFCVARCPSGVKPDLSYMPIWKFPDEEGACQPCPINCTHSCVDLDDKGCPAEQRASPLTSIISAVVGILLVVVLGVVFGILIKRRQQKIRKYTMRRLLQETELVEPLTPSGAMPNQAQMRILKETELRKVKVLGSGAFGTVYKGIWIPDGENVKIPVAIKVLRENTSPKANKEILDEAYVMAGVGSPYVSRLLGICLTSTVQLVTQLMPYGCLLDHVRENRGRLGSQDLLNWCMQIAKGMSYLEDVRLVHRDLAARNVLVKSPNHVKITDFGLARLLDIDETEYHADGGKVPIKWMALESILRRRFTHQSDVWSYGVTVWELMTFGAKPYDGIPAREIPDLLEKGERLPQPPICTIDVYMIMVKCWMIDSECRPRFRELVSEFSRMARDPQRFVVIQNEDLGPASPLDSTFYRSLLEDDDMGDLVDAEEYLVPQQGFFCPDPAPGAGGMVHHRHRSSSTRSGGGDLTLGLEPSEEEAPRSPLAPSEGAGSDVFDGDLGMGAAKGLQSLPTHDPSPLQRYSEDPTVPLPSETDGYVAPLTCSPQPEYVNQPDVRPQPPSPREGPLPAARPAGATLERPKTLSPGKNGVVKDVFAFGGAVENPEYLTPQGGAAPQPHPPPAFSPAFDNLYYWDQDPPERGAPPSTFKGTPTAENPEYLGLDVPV

Take `Cc1nc(-c2cccc(NC(=O)c3c(F)cccc3F)c2)c(-c2ccnc(Nc3ccc(OCCN4CCCC4)c(Cl)c3)n2)s1` [Example 110, N-[3-(5-{2-[(3-Chloro-4-{[2-(1-pyrrolidinyl)ethyl]oxy}phenyl)amino]-4-pyrimidinyl}-2-methyl-1,3-thiazol-4-yl)phenyl]-2,6-difluorobenzamide]: the IC50 in the test with BT474 tumor cells is 100 to 1000 nM; on EGFR it was under 100 nM; on ErbB2, under 100 nM; with SK-MEL-28 tumor cells it was over 1000 nM; with Colo205 tumor cells it was over 1000 nM.

For `CC(C)(C)c1nc(-c2cccc(NC(=O)c3c(F)cccc3F)c2)c(-c2ccnc(Nc3cccc(CN4CCCC4)c3)n2)s1` [Example 123, N-{3-[2-(1,1-Dimethylethyl)-5-(2-{[3-(1-pyrrolidinylmethyl)phenyl]amino}-4-pyrimidinyl)-1,3-thiazol-4-yl]phenyl}-2,6-difluorobenzamide], the half-maximal inhibitory concentration (IC50) is 100 to 1000 nM in the test with BT474 tumor cells; under 100 nM on EGFR; under 100 nM at ErbB2; over 1000 nM with SK-MEL-28 tumor cells; over 1000 nM in the test on Colo205 tumor cells.

As to `Cc1nc(-c2cccc(NC(=O)Nc3ccc(Cl)c(C(F)(F)F)c3)c2)c(-c2ccnc(Nc3ccc4c(c3)CN(C)CC4)n2)s1` [Example 129], the IC50 is over 1000 nM in the test on BT474 tumor cells; 100 to 1000 nM at EGFR; under 100 nM on ErbB2; over 1000 nM with SK-MEL-28 tumor cells; 100 to 1000 nM in the test with Colo205 tumor cells.

As to `O=C(Nc1cccc(-c2nc(N3CCCCC3)sc2-c2ccnc(Nc3cccc(CN4CCCC4)c3)n2)c1)c1c(F)cccc1F` [Example 73, 2,6-Difluoro-N-{3-[2-(1-piperidinyl)-5-(2-{[3-(1-pyrrolidinylmethyl)phenyl]amino}-4-pyrimidinyl)-1,3-thiazol-4-yl]phenyl}benzamide], the IC50 with BT474 tumor cells is 100 to 1000 nM; at EGFR, under 100 nM; on ErbB2, under 100 nM; in the test on SK-MEL-28 tumor cells, over 1000 nM; in the test with Colo205 tumor cells, 100 to 1000 nM.

For `O=C(Nc1cccc(-c2nc(N3CCC3)sc2-c2ccnc(Nc3ccc(OCCN4CCCC4)c(Cl)c3)n2)c1)c1c(F)cccc1F` [Example 47, N-[3-(2-(1-Azetidinyl)-5-{2-[(3-chloro-4-{[2-(1-pyrrolidinyl)ethyl]oxy}phenyl)amino]-4-pyrimidinyl}-1,3-thiazol-4-yl)phenyl]-2,6-difluorobenzamide], the concentration for half-maximal inhibition (IC50) was over 1000 nM in the test with BT474 tumor cells; under 100 nM on EGFR; under 100 nM on ErbB2; over 1000 nM with SK-MEL-28 tumor cells; over 1000 nM in the test on Colo205 tumor cells.

Regarding `Cc1nc(-c2cccc(NC(=O)Nc3ccc(Cl)c(C(F)(F)F)c3)c2)c(-c2ccnc(Nc3ccc(OCCN(C)C)c(Cl)c3)n2)s1` [Example 133, N-[3-(5-{2-[(3-Chloro-4-{[2-(dimethylamino)ethyl]oxy}Phenyl)amino]-4-pyrimidinyl}-2-methyl-1,3-thiazol-4-yl)phenyl]-N′-[4-chloro-3-(trifluoromethyl)phenyl]urea], the IC50 was over 1000 nM in the test with BT474 tumor cells; 100 to 1000 nM on EGFR; 100 to 1000 nM at ErbB2; 100 to 1000 nM in the test with SK-MEL-28 tumor cells; 100 to 1000 nM in the test with Colo205 tumor cells.

Take `Cc1cccc(C(=O)Nc2cccc(-c3nc(C)sc3-c3ccnc(Nc4ccc(OCCN(C)C)c(Cl)c4)n3)c2)c1` [Example 135, N-[3-(5-{2-[(3-Chloro-4-{[2-(dimethylamino)ethyl]oxy}phenyl)amino]-4-pyrimidinyl}-2-methyl-1,3-thiazol-4-yl)phenyl]-3-methylbenzamide]: the IC50 is 100 to 1000 nM in the test with BT474 tumor cells; under 100 nM at EGFR; under 100 nM on ErbB2; over 1000 nM in the test on SK-MEL-28 tumor cells; over 1000 nM in the test with Colo205 tumor cells.

As for `CCc1nc(-c2cccc(NC(=O)c3c(F)cccc3F)c2)c(-c2ccnc(Nc3ccc(OCCN4CCCC4)c(F)c3)n2)s1` [Example 117, N-[3-(2-Ethyl-5-{2-[(3-fluoro-4-{[2-(1-pyrrolidinyl)ethyl]oxy}phenyl)amino]-4-pyrimidinyl}-1,3-thiazol-4-yl)phenyl]-2,6-difluorobenzamide], the IC50 in the test on BT474 tumor cells is 100 to 1000 nM; at EGFR, under 100 nM; on ErbB2 it was under 100 nM; in the test with SK-MEL-28 tumor cells it was over 1000 nM; in the test on Colo205 tumor cells, over 1000 nM.

Take `COc1cccc(C(=O)Nc2cccc(-c3nc(C)sc3-c3ccnc(Nc4ccc5c(c4)CN(C)CC5)n3)c2)c1` [Example 132, N-[3-(2-Methyl-5-{2-[(2-methyl-1,2,3,4-tetrahydro-7-isoquinolinyl)amino]-4-pyrimidinyl}-1,3-thiazol-4-yl)phenyl]-3-(methyloxy)benzamide trifluoroacetate]: the IC50 is 100 to 1000 nM with BT474 tumor cells; under 100 nM at EGFR; under 100 nM on ErbB2; over 1000 nM in the test on SK-MEL-28 tumor cells; over 1000 nM in the test with Colo205 tumor cells.
